In US12570613B2, “Imidazoquinoline or benzoindazolone compound and intermediate for preparing same” (LMITO THERAPEUTICS INC., priority 2020, dated 2026):

Target: NQO1 protein (Homo sapiens, UniProt P15559)
Assay: In vitro NQO1 enzyme activity assay (cytochrome C reduction, absorbance at 550 nm)
Assay type: biochemical
Conditions: NQO1 2 ng
Procedure: In order to evaluate the activity of the synthesized compound in NQO1, the experiments were performed as follows:
The synthesized compound was dissolved in DMSO to make a 10 mM stock solution, which was further diluted with DMSO to 250 μM so as to prepare a working solution. For experimental groups, the working solution of the compound was added to an enzyme reaction solution in which 50 μL of 1.54 mM Cytochrome C solution was added to 900 μL of 50 mM Tris-HCl (pH7.5) containing 0.14% BSA. For negative control groups, DMSO not containing the compound of the invention was added to the enzyme reaction solution as above. For each experimental and control group, 20 μL of 100 ng/mL NQO1 protein was added, and then 10 μL of 20 mM NADH was added to bring up the total volume to 1 mL. The change of absorbance was measured at 550 nm for 10 minutes using 1 mL cuvette. The kinetics of reaction was measured by the increase of absorbance as the cytochrome C was reduced at 550 nm over 10 minutes. The activity of NQO1 was measured by the amount of cytochrome C that is being reduced (nmol cytochrome C that was reduced/min/ug NQO1 protein). • Absorption coefficient of Cytochrome C: 21.1 (μmol/mL)^−1cm^−1 • BSA: Bovine Serum Albumin • […]: Tris(hydroxymethyl)aminomethane hydrochloride (buffer solution) • Equipment=Cary 100 UV-Vis Spectrophotometer • The results are shown in Tables 1 to 8.

Sequence of NQO1 protein (P15559 whole entry, species assumed): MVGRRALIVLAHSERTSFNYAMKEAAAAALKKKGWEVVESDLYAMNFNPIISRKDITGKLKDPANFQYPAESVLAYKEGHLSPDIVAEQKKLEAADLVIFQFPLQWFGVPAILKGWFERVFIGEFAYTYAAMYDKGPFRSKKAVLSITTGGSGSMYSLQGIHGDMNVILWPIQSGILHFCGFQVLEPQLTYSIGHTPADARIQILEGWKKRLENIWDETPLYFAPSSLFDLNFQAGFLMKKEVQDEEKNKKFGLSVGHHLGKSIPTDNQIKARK

SMILES: Cc1nn(-c2ccccc2)c2c1C(=O)C(=O)c1ccccc1-2 [Compound 9, 3-Methyl-1-phenyl-1H-benzo[g]indazol-4,5-dione]
- NQO1 activity assay Cytochrome C reduced/min/μg NQO1 protein (10 nM Compound (Table 1)): 932 nmol cytochrome C that was reduced/min/ug NQO1 protein
- NQO1 activity assay Cytochrome C reduced/min/μg NQO1 protein (50 nM Compound (Table 2)): 2093 nmol cytochrome C that was reduced/min/ug NQO1 protein
- NQO1 activity assay Cytochrome C reduced/min/μg NQO1 protein (50 nM Compound (Table 3)): 3089 nmol cytochrome C that was reduced/min/ug NQO1 protein
- NQO1 activity assay Cytochrome C reduced/min/μg NQO1 protein (50 nM Compound (Table 4)): 3864 nmol cytochrome C that was reduced/min/ug NQO1 protein
- NQO1 activity assay Cytochrome C reduced/min/μg NQO1 protein (50 nM Compound (Table 5)): 3091 nmol cytochrome C that was reduced/min/ug NQO1 protein
- NQO1 activity assay Cytochrome C reduced/min/μg NQO1 protein (50 nM Compound (Table 6)): 2885 nmol cytochrome C that was reduced/min/ug NQO1 protein
- NQO1 activity assay Cytochrome C reduced/min/μg NQO1 protein (50 nM Compound (Table 7)): 2892 nmol cytochrome C that was reduced/min/ug NQO1 protein
- NQO1 activity assay Cytochrome C reduced/min/μg NQO1 protein (50 nM Compound (Table 8)): 2709 nmol cytochrome C that was reduced/min/ug NQO1 protein

SMILES: Cc1c2c(nn1S(=O)(=O)c1ccc([N+](=O)[O-])cc1)-c1ccccc1C(=O)C2=O [Compound 56, 3-Methyl-2-(4-nitrophenylsulfonyl)-2H-benzo[g]indazol-4,5-dione]
- NQO1 activity assay Cytochrome C reduced/min/μg NQO1 protein (50 nM Compound (Table 7)): 1839 nmol cytochrome C that was reduced/min/ug NQO1 protein

SMILES: Cc1nn(-c2ccc(Cl)cc2)c2c1C(=O)C(=O)c1ccccc1-2 [Compound 26, 1-(4-Chlorophenyl)-3-methyl-1H-benzo[g]indazol-4,5-dione]
- NQO1 activity assay Cytochrome C reduced/min/μg NQO1 protein (10 nM Compound (Table 1)): 465 nmol cytochrome C that was reduced/min/ug NQO1 protein

SMILES: CN(C)Cc1nn(-c2ccccc2)c2c1C(=O)C(=O)c1ccccc1-2 [Compound 17, 3-((Dimethylamino)methyl)-1-phenyl-1H-benzo[g]indazol-4,5-dione]
- NQO1 activity assay Cytochrome C reduced/min/μg NQO1 protein (10 nM Compound (Table 1)): 254 nmol cytochrome C that was reduced/min/ug NQO1 protein

SMILES: COc1ccc(S(=O)(=O)n2nc3c(c2C)C(=O)C(=O)c2ccccc2-3)cc1 [Compound 51, 2-(4-Methoxyphenylsulfonyl)-3-methyl-2H-benzo[g]indazol-4,5-dione]
- NQO1 activity assay Cytochrome C reduced/min/μg NQO1 protein (50 nM Compound (Table 6)): 1288 nmol cytochrome C that was reduced/min/ug NQO1 protein

SMILES: Cc1nn(-c2nccs2)c2c1C(=O)C(=O)c1ccccc1-2 [Compound 40, 3-Methyl-1-(thiazol-2-yl)-1H-benzo[g]indazol-4,5-dione]
- NQO1 activity assay Cytochrome C reduced/min/μg NQO1 protein (50 nM Compound (Table 3)): 2041 nmol cytochrome C that was reduced/min/ug NQO1 protein

SMILES: CCOC(=O)c1nc2n(c1-c1ccccc1)-c1ccccc1C(=O)C2=O [Compound 6, Ethyl 4,5-dioxo-1-phenyl-4,5-dihydroimidazo[1,2-a]quinolin-2-carboxylate]
- NQO1 activity assay Cytochrome C reduced/min/μg NQO1 protein (10 nM Compound (Table 1)): 916 nmol cytochrome C that was reduced/min/ug NQO1 protein

SMILES: Cc1nn(-c2cccnc2)c2c1C(=O)C(=O)c1ccccc1-2 [Compound 31, 3-Methyl-1-(pyridin-3-yl)-1H-benzo[g]indazol-4,5-dione]
- NQO1 activity assay Cytochrome C reduced/min/μg NQO1 protein (10 nM Compound (Table 1)): 900 nmol cytochrome C that was reduced/min/ug NQO1 protein

SMILES: O=C1C(=O)c2cnn(-c3ccccc3)c2-c2ccccc21 [Compound 33, 1-Phenyl-1H-benzo[g]indazol-4,5-dione]
- NQO1 activity assay Cytochrome C reduced/min/μg NQO1 protein (10 nM Compound (Table 1)): 436 nmol cytochrome C that was reduced/min/ug NQO1 protein

SMILES: O=C1C(=O)c2c(C(F)(F)F)nn(-c3ccccc3)c2-c2ccccc21 [Compound 34, 1-Phenyl-3-(trifluoromethyl)-1H-benzo[g]indazol-4,5-dione]
- NQO1 activity assay Cytochrome C reduced/min/μg NQO1 protein (10 nM Compound (Table 1)): 716 nmol cytochrome C that was reduced/min/ug NQO1 protein

SMILES: Cc1c2c(nn1S(=O)(=O)N1CCOCC1)-c1ccccc1C(=O)C2=O [Compound 62, 3-Methyl-2-(morpholinosulfonyl)-2H-benzo[g]indazol-4,5-dione]
- NQO1 activity assay Cytochrome C reduced/min/μg NQO1 protein (50 nM Compound (Table 8)): 1916 nmol cytochrome C that was reduced/min/ug NQO1 protein

SMILES: Cc1c2c(nn1S(=O)(=O)C1CC1)-c1ccccc1C(=O)C2=O [Compound 53, 2-(Cyclopropylsulfonyl)-3-methyl-2H-benzo[g]indazol-4,5-dione]
- NQO1 activity assay Cytochrome C reduced/min/μg NQO1 protein (50 nM Compound (Table 7)): 1549 nmol cytochrome C that was reduced/min/ug NQO1 protein

SMILES: Cc1ccc(-n2nc(C)c3c2-c2ccccc2C(=O)C3=O)cc1 [Compound 29, 3-Methyl-1-p-tolyl-1H-benzo[g]indazol-4,5-dione]
- NQO1 activity assay Cytochrome C reduced/min/μg NQO1 protein (10 nM Compound (Table 1)): 668 nmol cytochrome C that was reduced/min/ug NQO1 protein

SMILES: Cc1nn(C)c2c1C(=O)C(=O)c1ccccc1-2 [Compound 22, 1,3-Dimethyl-1H-benzo[g]indazol-4,5-dione]
- NQO1 activity assay Cytochrome C reduced/min/μg NQO1 protein (10 nM Compound (Table 1)): 481 nmol cytochrome C that was reduced/min/ug NQO1 protein

SMILES: CC(C)OCc1nn(-c2ccccc2)c2c1C(=O)C(=O)c1ccccc1-2 [Compound 19, 3-(Isopropoxymethyl)-1-phenyl-1H-benzo[g]indazol-4,5-dione]
- NQO1 activity assay Cytochrome C reduced/min/μg NQO1 protein (10 nM Compound (Table 1)): 106 nmol cytochrome C that was reduced/min/ug NQO1 protein

SMILES: Cc1nn(-c2cc(Cl)cc(Cl)c2)c2c1C(=O)C(=O)c1ccccc1-2 [Compound 36, 1-(3,5-Dichlorophenyl)-3-methyl-1H-benzo[g]indazol-4,5-dione]
- NQO1 activity assay Cytochrome C reduced/min/μg NQO1 protein (50 nM Compound (Table 2)): 1873 nmol cytochrome C that was reduced/min/ug NQO1 protein

SMILES: Cc1c2c(nn1S(=O)(=O)c1ccc(C(F)(F)F)cc1)-c1ccccc1C(=O)C2=O [Compound 57, 3-Methyl-2-(4-(trifluoromethyl)phenylsulfonyl)-2H-benzo[g]indazol-4,5-dione]
- NQO1 activity assay Cytochrome C reduced/min/μg NQO1 protein (50 nM Compound (Table 7)): 1868 nmol cytochrome C that was reduced/min/ug NQO1 protein

SMILES: Cc1c2c(nn1C)-c1ccccc1C(=O)C2=O [Compound 23, 2,3-Dimethyl-2H-benzo[g]indazol-4,5-dione]
- NQO1 activity assay Cytochrome C reduced/min/μg NQO1 protein (10 nM Compound (Table 1)): 477 nmol cytochrome C that was reduced/min/ug NQO1 protein

SMILES: Cc1n[nH]c2c1C(=O)C(=O)c1ccccc1-2 [Compound 43, 3-Methyl-1H-benzo[g]indazol-4,5-dione]
- NQO1 activity assay Cytochrome C reduced/min/μg NQO1 protein (50 nM Compound (Table 2)): 1008 nmol cytochrome C that was reduced/min/ug NQO1 protein

SMILES: Cc1nn(CCCc2ccccc2)c2c1C(=O)C(=O)c1ccccc1-2 [Compound 67, 3-Methyl-1-(3-phenylpropyl)-1H-benzo[g]indazol-4,5-dione]
- NQO1 activity assay Cytochrome C reduced/min/μg NQO1 protein (50 nM Compound (Table 8)): 1836 nmol cytochrome C that was reduced/min/ug NQO1 protein

SMILES: O=C1C(=O)c2ncc(-c3ccc(C(F)(F)F)cc3)n2-c2ccccc21 [Compound 4, 1-(4-(Trifluoromethyl)phenyl)imidazo[1,2-a]quinoline-4,5-dione]
- NQO1 activity assay Cytochrome C reduced/min/μg NQO1 protein (10 nM Compound (Table 1)): 170 nmol cytochrome C that was reduced/min/ug NQO1 protein

SMILES: Cc1ccc(S(=O)(=O)n2nc3c(c2C)C(=O)C(=O)c2ccccc2-3)cc1 [Compound 50, 3-Methyl-2-tosyl-2H-benzo[g]indazol-4,5-dione]
- NQO1 activity assay Cytochrome C reduced/min/μg NQO1 protein (50 nM Compound (Table 6)): 1542 nmol cytochrome C that was reduced/min/ug NQO1 protein

SMILES: O=C1C(=O)c2c(CCc3ccccc3)nn(-c3ccccc3)c2-c2ccccc21 [Compound 12, 3-Phenethyl-1-phenyl-1H-benzo[g]indazol-4,5-dione]
- NQO1 activity assay Cytochrome C reduced/min/μg NQO1 protein (10 nM Compound (Table 1)): 225 nmol cytochrome C that was reduced/min/ug NQO1 protein

SMILES: O=C1C(=O)c2c(-c3ccccc3)nn(-c3ccccc3)c2-c2ccccc21 [Compound 13, 1,3-Diphenyl-1H-benzo[g]indazol-4,5-dione]
- NQO1 activity assay Cytochrome C reduced/min/μg NQO1 protein (10 nM Compound (Table 1)): 198 nmol cytochrome C that was reduced/min/ug NQO1 protein

SMILES: CC(C)c1cnc2n1-c1ccccc1C(=O)C2=O [Compound 3, 1-Isopropylimidazo[1,2-a]quinolin-4,5-dione]
- NQO1 activity assay Cytochrome C reduced/min/μg NQO1 protein (10 nM Compound (Table 1)): 755 nmol cytochrome C that was reduced/min/ug NQO1 protein
